In data set [1] the target is T1, G-protein coupled bile acid receptor 1 (Homo sapiens) (UniProt Q8TDU6).
T1 sequence (whole entry): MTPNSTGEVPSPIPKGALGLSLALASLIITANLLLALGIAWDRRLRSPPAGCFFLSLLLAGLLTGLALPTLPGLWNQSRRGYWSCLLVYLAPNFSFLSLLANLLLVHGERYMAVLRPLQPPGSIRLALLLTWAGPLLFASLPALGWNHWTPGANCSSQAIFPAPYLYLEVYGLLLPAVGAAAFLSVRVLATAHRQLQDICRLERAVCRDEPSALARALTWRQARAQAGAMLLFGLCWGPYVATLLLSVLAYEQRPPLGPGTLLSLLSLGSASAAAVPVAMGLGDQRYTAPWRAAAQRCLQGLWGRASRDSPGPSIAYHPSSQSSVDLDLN
As to the kind of experiment: Agonist activity at human GPBAR1 expressed in Jurkat cells assessed as increase in intracellular cAMP level incubated for 1 hr by fluorescence based assay relative to control. The class given is functional, cell-based.

Data set [2] concerns the target T2, Peroxisome proliferator-activated receptor gamma (Homo sapiens, UniProt P37231).
T2 sequence (P37231 whole entry): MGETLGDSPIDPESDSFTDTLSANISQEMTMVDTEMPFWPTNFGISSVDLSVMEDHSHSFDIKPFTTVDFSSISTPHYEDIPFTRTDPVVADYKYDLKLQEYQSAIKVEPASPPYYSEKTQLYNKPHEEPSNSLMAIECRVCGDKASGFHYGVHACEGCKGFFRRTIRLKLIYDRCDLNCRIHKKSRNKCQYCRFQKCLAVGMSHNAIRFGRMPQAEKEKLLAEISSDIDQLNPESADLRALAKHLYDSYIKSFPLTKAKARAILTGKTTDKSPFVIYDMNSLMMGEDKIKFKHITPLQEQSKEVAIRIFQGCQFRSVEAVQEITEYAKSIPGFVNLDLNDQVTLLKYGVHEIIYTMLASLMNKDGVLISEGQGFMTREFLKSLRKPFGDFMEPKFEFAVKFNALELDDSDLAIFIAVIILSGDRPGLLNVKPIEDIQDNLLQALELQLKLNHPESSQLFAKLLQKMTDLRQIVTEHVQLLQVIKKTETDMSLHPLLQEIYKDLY
As to the kind of experiment: Agonist activity at PPARgamma (unknown origin) incubated for 2 hrs by TR-FRET assay.

The nature of data set [3]: Oral bioavailability in mouse at 10 mg/kg. Type of data set: ADME, organism-based. As to conditions: in vivo.
A short description of data set [4]: Lipophilicity, logD of compound at pH 6.8. Type of data set: physicochemical. As to conditions: buffer.
Data set [5] deals with Mus musculus. The experiment in a line: Anti Steato-hepatitic activity in STZ/HFD induced C57BL/6J mouse STAM model assessed as reduction in fibrosis at 3 to 30 mg/kg, po administered via oral gavage once daily for 3 weeks and measured on 9 week by Picro-Sirius Red staining based assay. Type of data set: functional, organism-based.
The nature of data set [6]: Oral bioavailability in Wistar rat at 10 mg/kg in presence of TRIS salt. Type of data set: ADME, organism-based. As to conditions: in vivo.
Data set [7] in a line: Oral bioavailability in Wistar rat at 10 mg/kg. As to conditions: in vivo. The class given is ADME, organism-based.
Data set [8] can be described thus: AUC in Wistar rat brain at 10 mg/kg, po. The class given is ADME, organism-based.
Data set [9] is described as follows: Ratio of AUC in liver to plasma in Wistar rat liver at 10 mg/kg, po. The class given is ADME, organism-based. To be noted: read-out: Ratio AUC.
Data set [10] is filed under the species Mus musculus. The experiment in a line: Anti Steato-hepatitic activity in C57BL/6J mouse STAM model assessed as change in Cyp8b1 gene level in liver. Type of data set: functional, organism-based.
A further data set concerns Rattus norvegicus. As to the kind of experiment: In-vivo agonist activity at FXR in Han Wistar rat assessed as upregulation of FGF15 mRNA level in ileum at 1.5 mg/kg administered via oral gavage once daily for 14 days measured 10 hrs post last dose by qRT-PCR analysis relative to control. The class given is functional.
A short description of data set [11]: Solubility of compound in pH 6.5 FASSIF at 2 mg measured for 5 to 60 mins by UV spectroscopic method. The class given is physicochemical.
The target of data set [12] is T3, G-protein coupled bile acid receptor 1 (Homo sapiens, UniProt Q8TDU6).
T3 sequence (Q8TDU6 whole entry): T1 sequence (whole entry)
The experiment in a line: Agonist activity at human GPBAR1 expressed in Jurkat cells assessed as increase in intracellular cAMP level incubated for 1 hr by fluorescence based assay. The class given is functional, cell-based.

Data set [13] is described as follows: Terminal half life in orally dosed rat. Type of data set: ADME, organism-based. As to conditions: in vivo, po, read-out: beta t1/2 (converted).
The species named for data set [14] is Mus musculus. The experiment in a line: Anti Steato-hepatitic activity in C57BL/6J mouse STAM model assessed as change in Map3k13 gene level in liver. The class given is functional, organism-based.
Data set [15] can be described thus: Oral bioavailability in Wistar rat at 30 mg/kg. Type of data set: ADME, organism-based. To be noted: in vivo.
Data set [16] in a line: Oral bioavailability in Wistar rat at 10 mg/kg in presence of PEG 300/D5W(3:1). The class given is ADME, organism-based. As to conditions: in vivo.
Data set [17] in a line: Half life in Wistar rat at 30 mg/kg, po. The class given is ADME, organism-based. As to conditions: in vivo.
Data set [18] is described as follows: AUC in Wistar rat at 100 mg/kg, po. As to conditions: in vivo. Type of data set: ADME, organism-based.
The target in data set [19] is T4, Oxysterols receptor LXR-alpha (Homo sapiens, UniProt Q13133).
T4 sequence (Q13133 whole entry): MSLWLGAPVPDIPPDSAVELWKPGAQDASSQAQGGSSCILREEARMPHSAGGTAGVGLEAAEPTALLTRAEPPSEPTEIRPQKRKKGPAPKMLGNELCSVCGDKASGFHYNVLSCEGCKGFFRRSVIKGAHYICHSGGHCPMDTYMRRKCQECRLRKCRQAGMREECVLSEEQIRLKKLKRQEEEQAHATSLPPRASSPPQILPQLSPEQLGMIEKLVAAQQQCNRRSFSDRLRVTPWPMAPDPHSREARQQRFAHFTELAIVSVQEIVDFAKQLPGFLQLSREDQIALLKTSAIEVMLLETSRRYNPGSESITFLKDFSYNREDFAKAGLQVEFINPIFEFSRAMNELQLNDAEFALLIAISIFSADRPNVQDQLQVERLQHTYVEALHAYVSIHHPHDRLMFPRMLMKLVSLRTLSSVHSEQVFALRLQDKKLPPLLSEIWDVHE
The experiment in a line: Agonist activity at GAL4-fused LXR LBD (unknown origin) expressed in HEK293T cells incubated for 24 by BrightGlo reagent based assay. Type of data set: cell-based.

A short description of data set [20]: AUC in Wistar rat plasma at 10 mg/kg, po. The class given is ADME, organism-based.
The nature of data set [21]: Oral bioavailability in rabbit at 10 mg/kg. The class given is ADME, organism-based, Oryctolagus cuniculus. As to conditions: in vivo.
The test system of data set [22] is Mus musculus. The experiment in a line: Anti Steato-hepatitic activity in STZ/HFD induced oral dosed C57BL/6J mouse STAM model assessed as reduction in macrovesicular fat deposition administered via oral gavage once daily for 3 weeks and measured on 9 week by H and E staining based assay. The class given is functional, organism-based.

In brackets after ≈: the same amount, converted by molar mass. Activity calls are given as the source filed them. The rule behind the calls is not given here.

As for `Cn1nc(C(=O)N(Cc2ccccc2)Cc2ccc(C(=O)O)cc2)c2c1-c1cc(Cl)ccc1OC2` [NIDUFEXOR], the Efficacy in [1] turned out to be 13%. In addition, the EC50 in data set [2] is above 30 µM; in data set [12], above 80 µM; in [19], above 10 µM. The bioavailability in data set [3] came to 115%; in data set [6], 52%; in data set [7], 52%; in data set [15], 52%; in data set [16], 51%; in [21], 52%. In addition, the logD in data set [4] was found to be 2.7. The outcome in the data set with Mus musculus [5], in the data set listed under Mus musculus [10] and in the data set listed under Mus musculus [14] was Active. For the same compound, the AUC in data set [8] stood at 1.11 µM·h; in [18], 399 µM·h; in [20], 24.5 µM·h. The Kp in [9] came to 1.5. The “fold change (FC)” value in the data set with Rattus norvegicus turned out to be 30. In data set [11], this compound yielded a solubility of 3 µM (≈ 1.46 µg/mL). Moreover, the half-life in data set [13] is 13 h; in [17] it was 6.3 h. Also, the Activity result with Mus musculus [22] is “Dose-dependent effect”.

(Values after ChEMBL document CHEMBL4402557, “Nidufexor (LMB763), a Novel FXR Modulator for the Treatment of Nonalcoholic Steatohepatitis” (J Med Chem, 2020).)
